In patent US20170266289A1, “TOPICAL FORMULATION” (AbbVie Inc., priority 2014, published 2017):
Several values for one entry are separate records, joined by “and”; a condition that tells them apart may be missing. Equal values may be shown once. Read-outs that look alike come from different tables or passages of the source. Each block holds one compound with its values, some of them ahead of it.

Legend:
[1] = Plasma PK and skin concentration after topical application of gel-cream to shaved backs of rats; format: in vivo; settings: for Kp at 24 h: skin/plasma; for Cmax / AUC(0-t): topical or ocular, rat plasma
Method: In order to assess the effect of the permeation enhancer on API delivery to the skin (topical delivery) and to the plasma (systamic delivery) in vivo, 177.8 mg of the subject topical formulation (177.8 μL of the 1% Compound 1 gel-cream, or about 1.778 mg of Compound 1) was applied to the backs of rats on a 4 cm^2 area of shaved skin. Plasma PK data was obtained during a period of about 24 hours following the topical application. See results in FIG. 9A, and the tables below.
The same experiment was repeated for a topical formulation using Compound 2 as the API. Also see FIG. 9B.

[2] = test system: FITC-induced contact hypersensitivity (CHS); test: Topical treatment after FITC challenge in FITC-induced contact hypersensitivity, ear skin thickness; format: in vivo, mice; settings: 4 hrs post FITC challenge
Method: Briefly, on Day 0, ears of experimental animals were sensitized with FITC. […] Naïve group animals received no treatment during the experiment. On Day 7, about 24 hours post FITC challenge, ear thickness (in mm) of all animals were measured. […]

[3] = Stability in plasma; format: in vitro ADME
Excerpt: Note that, due to the fact that BMS DPP is unstable in the plasma, the total blood concentration of BMS DPP cannot be determined.

[4] = test system: FITC-induced contact hypersensitivity (CHS); test: Prophylactic topical treatment of FITC-induced contact hypersensitivity, ear skin thickness; format: in vivo, mice; settings: 1 hr prior to FITC challenge
Excerpt: Contact hypersensitivity (CHS) is an immunological response against a small chemical hapten. During the sensitization phase, dermal dendritic cells (DCs) and Langerhans cells take up the hapten peptide conjugate and process it and migrate to the draining lymph node, where they present the antigen (Ag) to naive T cells, leading to the formation of Ag-specific memory T cells. Subsequent contact with the same chemical results in the activation of memory T cells and the recruitment of inflammatory cells to the site of allergen exposure. This elicitation response is manifested as skin inflammation, which in a clinical context is called allergic contact dermatitis. One of the small chemical haptens is FITC. FITC-induced CHS is believed to be predominantly associated with the activation of Th2 cells. Upon challenging the skin with FITC in mice sensitized with FITC, it is believed that FITC-specific T cells are recruited to the skin and produce Th2 cytokines, including IL-4.
Briefly, on Day 0, ears of experimental animals were sensitized with FITC. On Day 6, ears of the treatment group animals (0.01%, 0.1%, and 1% treatment groups) were first provided topical treatment of the subject formulations one hour prior to the FITC challenge. Specifically, 20 μL total (10 μL inner ear, and 10 μL outer ear) of topical treatment were massaged all around the ear of each experimental animals prior to FITC epicutaneous application. […] Naïve group animals received no treatment during the experiment. On Day 7, about 24 hours post FITC challenge, ear thickness (in mm) of all animals were measured.
Betamethasone Dipropionate (BMS DPP) topical cream formulations with different concentrations (0.005%, 0.01%, 0.1%, and 1% w/w) were prepared according to Example 3.

[5] = Optical microscopy examination of the formulations; format: physicochemical; settings: increasing the Transcutol HP content; data not shown
Excerpt: Thus maintaining a saturated solution with the presence of TRANSCUTOL HP™ is expected to increase in vitro flux and increase resultant skin exposures.

[6] = In vitro release testing in […] plates, flux through polyester membrane; format: in vitro ADME
Method: (§1) Diffusion assays were performed using Franz Cells and […]® plates, with Tuffryn®, polycarbonate, or polyester membranes, as well as hairless mouse skin. HPLC was employed to analyze in vitro samples.
(§2) For in vitro release testing in […]® plates, a two-compartment well system was used, with an internal well having a membrane as the formulation compartment, and an outer well filled with receptor media (phosphate buffer with 2% BSA). The TRANS WELL® plates were then agitated in a temperature-controlled incubator with shaker. Samples were manually pulled at pre-determined intervals with a pipette. New media was added to the receptor well after each sampling to make up the volume loss.
(§3) Generally, flux is calculated by determining the amount of solute that diffuses across a membrane of known surface area per unit time. There are many ways to calculate this value. We measured solute concentration in known volumes of receiver media and calculated the total amount that diffused over the time course of the experiment.

[7] = In vitro release testing in Franz Cells, flux through Tuffryn membrane; format: in vitro ADME
Method: as §1
Specifically, for the in vitro release testing in Franz Cells, vertical diffusion cells were filled with receptor media (phosphate buffer with 2% BSA). The receptor media was then agitated, with the exception of setup and sampling. Temperature is maintained at 32.5±2.0° C. Artificial membrane was then placed on the top of the cell, along with a dosage wafer, the formulation to be evaluated, and a glass sealing cap. A formulation permeability test was run in triplicate. Samples were collected at various programmed intervals, and sampling was an automated process by the system. Fresh media was pushed into the bottom of the cell while simultaneous sampling occurs from the top of the cell. All wells were sampled in a serial manner with the time of each sample recorded by the instrument.
as §3

[8] = In vitro release testing in […] plates, flux through polycarbonate membrane; format: in vitro ADME
Method: as §1, §2, §3

[9] = individual rats 1-3, topical 177.8 mg/animal in Formulation A (no Transcutol HP), 24 hr after dose
[10] = individual rats 4-6, topical 177.8 mg/animal in Formulation B (10% Transcutol HP), 24 hr after dose

Plasma Conc. [1, 9]: 0.00 ng/mL
Skin Conc. [1, 9]: 2393 ng/g and 5908 ng/g and 7728 ng/g
Skin/Plasma Ratio ([1]; individual rats 4-6, Formulation B, 24 hr after dose): 11076
Plasma Conc. [1, 10]: 4.46 ng/mL and 2.87 ng/mL and 0.00 ng/mL
Skin Conc. [1, 10]: 31734 ng/g and 16020 ng/g
concentration at 24 h ([1]; rat, plasma, topical, 177.8 mg, mean of rats 1-3, Formulation A, 24 hr after dose, read-out: Plasma Conc., Mean): 0 ng/mL
concentration at 24 h ([1]; rat, plasma, topical, 177.8 mg, mean of rats 4-6, Formulation B, 24 hr after dose, read-out: Plasma Conc., Mean): 2.44 ng/mL
concentration at 24 h ([1]; rat, plasma, topical, 177.8 mg/animal, individual rats 1-3, topical 177.8 mg/animal in Formulation A (no Transcutol HP), 24 hr after dose, read-out: Plasma Conc.): 0 ng/mL
concentration at 24 h ([1]; rat, skin, topical, 177.8 mg, mean of rats 1-3, Formulation A, 24 hr after dose, read-out: Skin Conc., Mean): 5340 ng/g
concentration at 24 h ([1]; rat, skin, topical, 177.8 mg, mean of rats 4-6, Formulation B, 24 hr after dose, read-out: Skin Conc., Mean): 25000 ng/g
concentration at 24 h ([1]; rat, skin, topical, 177.8 mg/animal, individual rats 4-6, topical 177.8 mg/animal in Formulation B (10% Transcutol HP), 24 hr after dose, read-out: Skin Conc.): 27100 ng/g
Kp at 24 h ([1]; rat, topical, 177.8 mg, individual rats 4-6, Formulation B, 24 hr after dose, read-out: Skin/Plasma Ratio): 6080
Kp at 24 h ([1]; rat, topical, 177.8 mg, mean, Formulation B, 24 hr after dose, read-out: Skin/Plasma Ratio, Mean): 8580
Compound: CC[C@@H]1CN(C(=O)NCC(F)(F)F)C[C@@H]1c1cnc2cnc3[nH]ccc3n12 [Compound 2, (3S,4R)-3-ethyl-4-(3H-imidazo[1,2-a]pyrrolo[2,3-e]pyrazin-8-yl)-N-(2,2,2-trifluoroethyl)pyrrolidine-1-carboxamide]

stability in the plasma [3]: unstable
Compound: CCC(=O)OCC(=O)[C@@]1(OC(=O)CC)[C@@H](C)C[C@H]2[C@@H]3CCC4=CC(=O)C=C[C@]4(C)[C@@]3(F)[C@@H](O)C[C@@]21C [BMS DPP, Betamethasone Dipropionate]
reduced ear skin thickness ([2]; Study 1, 0.1%): 95%
reduced ear skin thickness ([2]; Study 1, 1%): 96%
reduced ear skin thickness ([2]; Study 2, 0.01%): 92%
reduced ear skin thickness ([2]; Study 2, 0.1%): 96%
reduced ear skin thickness, effect ([2]; combined Study 1 and 2, 0.01%): 92%
reduced ear skin thickness, effect ([2]; combined Study 1 and 2, 0.1%): 95%
reduced ear skin thickness, effect ([2]; combined Study 1 and 2, 1%): 96%
reduced ear skin thickness ([4]; Study 1, 0.01%): 77%
reduced ear skin thickness ([4]; Study 1, 0.1%): 93%
reduced ear skin thickness ([4]; Study 1, 1%): 95%
reduced ear skin thickness ([4]; Study 2, 0.005%): 61%
reduced ear skin thickness ([4]; Study 2, 0.01%): 73%
reduced ear skin thickness ([4]; Study 2, 0.1%): 93%
reduced ear skin thickness, effect ([4]; combined Study 1 and 2, 0.005%): 61%
reduced ear skin thickness, effect ([4]; combined Study 1 and 2, 0.01%): 75%
reduced ear skin thickness, effect ([4]; combined Study 1 and 2, 0.1%): 93%
reduced ear skin thickness, effect ([4]; combined Study 1 and 2, 1%): 95%

amount solubilized in the gel-cream formulation [5]: solubilizes a greater amount
Ratio Transcutol HP/no enhancer, Flux TRANSWELL Plate polyester membrane [6]: 1.33
Flux TRANSWELL Plate polyester membrane ([6]; Transcutol 10%): 5.42
Flux TRANSWELL Plate polyester membrane ([6]; no permeation enhancer): 4.09
Ratio Transcutol HP/no enhancer, Flux Franz Cells Tuffryn membrane [7]: 1.20
Flux Franz Cells Tuffryn membrane ([7]; Transcutol 10%): 7.64
Flux Franz Cells Tuffryn membrane ([7]; no permeation enhancer): 6.34
Cmax ([1]; rat, plasma, 177.8 mg, 177.8 mg 1% gel-cream topical on 4 cm^2, 10% Transcutol HP): 70.7 ng/mL
Cmax ([1]; rat, plasma, 177.8 mg, 177.8 mg 1% gel-cream topical on 4 cm^2, no permeation enhancer): 11.4 ng/mL
AUC(0-t) ([1]; rat, plasma, 177.8 mg, 177.8 mg 1% gel-cream topical, 10% Transcutol HP): 392 ng·h/mL
AUC(0-t) ([1]; rat, plasma, 177.8 mg, 177.8 mg 1% gel-cream topical, no permeation enhancer): 62.4 ng·h/mL
concentration at 24 h ([1]; rat, skin, topical, 1.778 mg, rat skin, 177.8 mg 1% gel-cream topical, 10% Transcutol HP, read-out: Skin conc. 24 hr): 25000 ng/g
concentration at 24 h ([1]; rat, skin, topical, 1.778 mg, rat skin, 177.8 mg 1% gel-cream topical, no permeation enhancer, read-out: Skin conc. 24 hr): 5340 ng/g
Ratio Transcutol HP/no enhancer, Plasma AUC0-t ([1]; rat, topical): 6.28
Ratio Transcutol HP/no enhancer, Skin conc. 24 hr ([1]; rat, topical): 4.67
Ratio Transcutol HP/no enhancer, Flux TRANSWELL plate Polycarbonate membrane [8]: 1.35
Flux TRANSWELL plate Polycarbonate membrane ([8]; Transcutol 10%): 11.46
Flux TRANSWELL plate Polycarbonate membrane ([8]; no permeation enhancer): 8.52
Compound: CC[C@@H]1C[C@H](NS(=O)(=O)C2CC2)C[C@@H]1c1nnc2cnc3[nH]ccc3n12 [Compound 1, N-((1S,3R,4S)-3-ethyl-4-(6H-pyrrolo[2,3-e][1,2,4]triazolo[4,3-a]pyrazin-1-yl)cyclopentyl)cyclopropanesulfonamide]
